The source of these data is patent publication US20070244179A1, “Dihydro[1,4]dioxino[2,3-e]indazole derivatives as 5-hydroxytryptamine-6 ligands” (Wyeth, priority 2006, published 2007).

pKi: −log10 of the molar value. Counter-ions that a name gives are not always drawn.

As a reminder, the melting point is the temperature of the solid-liquid transition. By pKi is commonly meant the negative decadic logarithm of the Ki, by convention in mol/L.

Chain of human cloned 5-HT6 receptors (P50406 whole entry): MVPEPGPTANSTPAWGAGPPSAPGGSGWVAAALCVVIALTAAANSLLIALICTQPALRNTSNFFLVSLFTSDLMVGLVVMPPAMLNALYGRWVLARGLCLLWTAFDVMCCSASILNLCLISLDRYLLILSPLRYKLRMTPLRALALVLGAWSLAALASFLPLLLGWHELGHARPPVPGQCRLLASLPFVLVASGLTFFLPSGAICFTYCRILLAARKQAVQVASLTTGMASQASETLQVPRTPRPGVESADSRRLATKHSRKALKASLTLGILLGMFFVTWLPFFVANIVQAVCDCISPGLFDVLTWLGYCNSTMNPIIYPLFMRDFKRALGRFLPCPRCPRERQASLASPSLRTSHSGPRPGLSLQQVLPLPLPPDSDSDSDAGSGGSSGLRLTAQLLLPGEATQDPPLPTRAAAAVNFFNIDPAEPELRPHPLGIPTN

Tested on in one series: not given
Experiment: not given
Conditions: not given
In turn, `CNC[C@H]1COc2ccc3[nH]nc(S(=O)(=O)c4cccc5ccccc45)c3c2O1` (as salt: hydrochloride) [Example 6, N-Methyl-1-[(2S)-9-(1-naphthylsulfonyl)-2,3-dihydro-7H-[1,4]dioxino [2,3-e]indazol-2-yl]methanamine Hydrochloride] registered a melting point of 181.3 to 183.3 °C.
The same measure, in the same setting: the figure for `CCNC[C@H]1COc2ccc3[nH]nc(S(=O)(=O)c4cccc5ccccc45)c3c2O1` (as salt: hydrochloride) [Example 7, N-{[(2S)-9-(1-naphthylsulfonyl)-2,3-dihydro-7H-[1,4]dioxino[2,3-e]indazol-2-yl]-methyl}ethanamine] is 178.9 to 180.1 °C; for `CN(C)C[C@H]1COc2ccc3[nH]nc(S(=O)(=O)c4cccc5ccccc45)c3c2O1` (as salt: hydrochloride) [Example 8, N,N-dimethyl-1-[(2S)-9-(1-naphthylsulfonyl)-2,3-dihydro-7H-[1,4]dioxino[2,3-e]-indazol-2-yl]methanamine] it is 178.1 to 181.3 °C; for `CCN(CC)C[C@H]1COc2ccc3[nH]nc(S(=O)(=O)c4cccc5ccccc45)c3c2O1` (as salt: hydrochloride) [Example 9, N-ethyl-N-{[(2S)-9-(1-naphthylsulfonyl)-2,3-dihydro-7H-[1,4]dioxino[2,3-e]indazol-2-yl]methyl}ethanamine] it is 175.6 to 177.2 °C.
The same measure, in the same setting: as for `O=S(=O)(c1cccc2ccccc12)c1n[nH]c2ccc3c(c12)O[C@@H](CN1CCCC1)CO3` (as salt: hydrochloride) [Example 10, (2S)-9-(1-naphthylsulfonyl)-2-(pyrrolidin-1-ylmethyl)-2,3-dihydro-7H-[1,4]dioxino-[2,3-e]indazole], the figure is 182.6 to 184.3 °C; as for `O=S(=O)(c1cccc2ccccc12)c1n[nH]c2ccc3c(c12)O[C@@H](CN1CCCCC1)CO3` (as salt: hydrochloride) [Example 11, (2S)-9-(1-naphthylsulfonyl)-2-(piperidin-1-ylmethyl)-2,3-dihydro-7H-[1,4]dioxino-[2,3-e]indazole], 163.9 to 165.2 °C.
Same read-out and setting: as for `CNC[C@@H]1COc2ccc3[nH]nc(S(=O)(=O)c4cccc5ccccc45)c3c2O1` (as salt: hydrochloride) [Example 12, N-methyl-1-[(2R)-9-(1-naphthylsulfonyl)-2,3-dihydro-7H-[1,4]dioxino[2,3-e]indazol-2-yl]methanamine], the figure is > 200 °C; as for `CN(C)C[C@@H]1COc2ccc3[nH]nc(S(=O)(=O)c4cccc5ccccc45)c3c2O1` (as salt: hydrochloride) [Example 13, N,N-dimethyl-1-[(2R)-9-(1-naphthylsulfonyl)-2,3-dihydro-7H-[1,4]dioxino[2,3-e]-indazol-2-yl]methanamine], > 200 °C; as for `CCN(CC)C[C@@H]1COc2ccc3[nH]nc(S(=O)(=O)c4cccc5ccccc45)c3c2O1` (as salt: hydrochloride) [Example 14, N-ethyl-N-{[(2R)-9-(1-naphthylsulfonyl)-2,3-dihydro-7H-[1,4]dioxino[2,3-e]indazol-2yl]-methyl}ethanamine], > 200 °C.
As for `CCNC[C@@H]1COc2ccc3[nH]nc(S(=O)(=O)c4cccc5ccccc45)c3c2O1` (as salt: hydrochloride) [Example 15, N-{[(2R)-9-(1-naphthylsulfonyl)-2,3-dihydro-7H-[1,4]dioxino[2,3-e]indazol-2yl]methyl}-ethanamine], the melting point was 182 to 184 °C.
Take `O=S(=O)(c1cccc2ccccc12)c1n[nH]c2ccc3c(c12)O[C@H](CN1CCCC1)CO3` (as salt: hydrochloride) [Example 16, (2R)-9-(1-naphthylsulfonyl)-2-(pyrrolidin-1-ylmeyhyl)-2,3-dihydro-7H-[1,4]dioxino-[2,3-e]indazole]: the melting point was 184 to 186 °C.
As to `O=S(=O)(c1cccc2ccccc12)c1n[nH]c2ccc3c(c12)O[C@H](CN1CCCCC1)CO3` (as salt: hydrochloride) [Example 17, (2R)-9-(1-naphthylsulfonyl)-2-(piperidin-1-ylmeyhyl)-2,3-dihydro-7H [1,4]dioxino-[2,3-e]indazole], the melting point was in the range of 187 to 189 °C.

The next series concerns the target human cloned 5-HT6 receptors (Homo sapiens, UniProt P50406). In words: Evaluation of 5-HT6 binding affinity ([3H]-LSD displacement, membranes of Hela cells).
Conditions: not given
On to `CNC[C@H]1COc2ccc3[nH]nc(S(=O)(=O)c4cccc5ccccc45)c3c2O1` [Example 6, N-Methyl-1-[(2S)-9-(1-naphthylsulfonyl)-2,3-dihydro-7H-[1,4]dioxino [2,3-e]indazol-2-yl]methanamine Hydrochloride], for which the negative logarithm of the Ki (pKi) was 7.35.
In turn, `CCNC[C@H]1COc2ccc3[nH]nc(S(=O)(=O)c4cccc5ccccc45)c3c2O1` [Example 7, N-{[(2S)-9-(1-naphthylsulfonyl)-2,3-dihydro-7H-[1,4]dioxino[2,3-e]indazol-2-yl]-methyl}ethanamine] had a pKi of 7.08.
The same measure, in the same setting: as for `CN(C)C[C@H]1COc2ccc3[nH]nc(S(=O)(=O)c4cccc5ccccc45)c3c2O1` [Example 8, N,N-dimethyl-1-[(2S)-9-(1-naphthylsulfonyl)-2,3-dihydro-7H-[1,4]dioxino[2,3-e]-indazol-2-yl]methanamine], the figure is 7.21.
Still for that read-out and setting: as for `CCN(CC)C[C@H]1COc2ccc3[nH]nc(S(=O)(=O)c4cccc5ccccc45)c3c2O1` [Example 9, N-ethyl-N-{[(2S)-9-(1-naphthylsulfonyl)-2,3-dihydro-7H-[1,4]dioxino[2,3-e]indazol-2-yl]methyl}ethanamine], the figure is 7.87; as for `O=S(=O)(c1cccc2ccccc12)c1n[nH]c2ccc3c(c12)O[C@@H](CN1CCCC1)CO3` [Example 10, (2S)-9-(1-naphthylsulfonyl)-2-(pyrrolidin-1-ylmethyl)-2,3-dihydro-7H-[1,4]dioxino-[2,3-e]indazole], 7.51.
In turn, `O=S(=O)(c1cccc2ccccc12)c1n[nH]c2ccc3c(c12)O[C@@H](CN1CCCCC1)CO3` [Example 11, (2S)-9-(1-naphthylsulfonyl)-2-(piperidin-1-ylmethyl)-2,3-dihydro-7H-[1,4]dioxino-[2,3-e]indazole] had a pKi of 7.10.
The same measure, in the same setting: as for `CNC[C@@H]1COc2ccc3[nH]nc(S(=O)(=O)c4cccc5ccccc45)c3c2O1` [Example 12, N-methyl-1-[(2R)-9-(1-naphthylsulfonyl)-2,3-dihydro-7H-[1,4]dioxino[2,3-e]indazol-2-yl]methanamine], the figure is 7.26.
Still for that read-out and setting: the figure for `CN(C)C[C@@H]1COc2ccc3[nH]nc(S(=O)(=O)c4cccc5ccccc45)c3c2O1` [Example 13, N,N-dimethyl-1-[(2R)-9-(1-naphthylsulfonyl)-2,3-dihydro-7H-[1,4]dioxino[2,3-e]-indazol-2-yl]methanamine] is 7.51; for `CCN(CC)C[C@@H]1COc2ccc3[nH]nc(S(=O)(=O)c4cccc5ccccc45)c3c2O1` [Example 14, N-ethyl-N-{[(2R)-9-(1-naphthylsulfonyl)-2,3-dihydro-7H-[1,4]dioxino[2,3-e]indazol-2yl]-methyl}ethanamine] it is 7.38.
The same measure, in the same setting: the figure for `CCNC[C@@H]1COc2ccc3[nH]nc(S(=O)(=O)c4cccc5ccccc45)c3c2O1` [Example 15, N-{[(2R)-9-(1-naphthylsulfonyl)-2,3-dihydro-7H-[1,4]dioxino[2,3-e]indazol-2yl]methyl}-ethanamine] is 7.49.
In turn, `O=S(=O)(c1cccc2ccccc12)c1n[nH]c2ccc3c(c12)O[C@H](CN1CCCC1)CO3` [Example 16, (2R)-9-(1-naphthylsulfonyl)-2-(pyrrolidin-1-ylmeyhyl)-2,3-dihydro-7H-[1,4]dioxino-[2,3-e]indazole] had a pKi of 7.40.
The same measure, in the same setting: the figure for `O=S(=O)(c1cccc2ccccc12)c1n[nH]c2ccc3c(c12)O[C@H](CN1CCCCC1)CO3` [Example 17, (2R)-9-(1-naphthylsulfonyl)-2-(piperidin-1-ylmeyhyl)-2,3-dihydro-7H [1,4]dioxino-[2,3-e]indazole] is 7.44.

The series is the same for the next values; noted with them: read-out: 5-HT6 Binding Ki; [3H]-LSD 3.0 nM, Hela cell membranes expressing human cloned 5-HT6 receptors, 120 minutes at room temperature.
As to `CCCCNC[C@@H]1COc2ccc3[nH]nc(S(=O)(=O)c4cccc5ccccc45)c3c2O1` [Example 18], the negative logarithm of the Ki (pKi) is 7.52.
